According to PubChem BioAssay (NCI):
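How tested: cells in 96-well plates exposed to compound for 48 hours at five concentrations. GI50 marks 50% less growth. TGI marks complete inhibition of growth.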

Legend:
Experiment in all cases: NCI anticancer screen, dose series, 48 h
A498 renal = test system: A498 renal
NCI-H522 lung = test system: NCI-H522 lung
HOP-92 NSCLC = test system: HOP-92 NSCLC
HS 578T breast = test system: HS 578T breast
NCI-H460 lung = test system: NCI-H460 lung
OVCAR-5 ovarian = test system: OVCAR-5 ovarian
CAKI-1 renal = test system: CAKI-1 renal
MDA-MB-435 = test system: MDA-MB-435
K-562 leukemia = test system: K-562 leukemia
ACHN renal = test system: ACHN renal
MOLT-4 leukemia = test system: MOLT-4 leukemia
MCF7 breast = test system: MCF7 breast
U251 CNS = test system: U251 CNS
IGROV1 ovarian = test system: IGROV1 ovarian
SR leukemia = test system: SR leukemia
LOX IMVI melanoma = test system: LOX IMVI melanoma
RXF 393 renal = test system: RXF 393 renal
A549 NSCLC = test system: A549 NSCLC
PC-3 prostate = test system: PC-3 prostate
OVCAR-8 ovarian = test system: OVCAR-8 ovarian
UACC-62 melanoma = test system: UACC-62 melanoma
HOP-62 NSCLC = test system: HOP-62 NSCLC
M14 melanoma = test system: M14 melanoma
KM12 colon = test system: KM12 colon
NCI/ADR-RES ovarian = test system: NCI/ADR-RES ovarian
COLO 205 colon = test system: COLO 205 colon
TK-10 renal = test system: TK-10 renal
T-47D breast = test system: T-47D breast
BT-549 breast = test system: BT-549 breast
SK-MEL-28 melanoma = test system: SK-MEL-28 melanoma
NCI-H226 lung = test system: NCI-H226 lung
EKVX NSCLC = test system: EKVX NSCLC
SK-MEL-2 melanoma = test system: SK-MEL-2 melanoma
MALME-3M melanoma = test system: MALME-3M melanoma
SK-OV-3 ovarian = test system: SK-OV-3 ovarian
SN12C renal = test system: SN12C renal
SNB-75 CNS = test system: SNB-75 CNS
UO-31 renal = test system: UO-31 renal
HT29 colon = test system: HT29 colon
SF-295 CNS = test system: SF-295 CNS
HCT-116 colon = test system: HCT-116 colon
SW-620 colon = test system: SW-620 colon
SNB-19 CNS = test system: SNB-19 CNS
HL-60(TB) leukemia = test system: HL-60(TB) leukemia
OVCAR-4 ovarian = test system: OVCAR-4 ovarian
MDA-MB-231 breast = test system: MDA-MB-231 breast
DU-145 prostate = test system: DU-145 prostate
HCC-2998 colon = test system: HCC-2998 colon
HCT-15 colon = test system: HCT-15 colon
786-0 renal = test system: 786-0 renal
CCRF-CEM leukemia = test system: CCRF-CEM leukemia
SF-268 CNS = test system: SF-268 CNS
UACC-257 melanoma = test system: UACC-257 melanoma
SF-539 CNS = test system: SF-539 CNS
SK-MEL-5 melanoma = test system: SK-MEL-5 melanoma
RPMI-8226 leukemia = test system: RPMI-8226 leukemia

With `Cc1ccc(C2=Nn3c(nnc3-c3ccccc3)SC2)cc1` the GI50 (A498 renal) was 0.445 µM, the TGI (A498 renal) was 5.23 µM and the GI50 (NCI-H522 lung) was 0.44 µM. The TGI (NCI-H522 lung) was 2.54 µM, the GI50 (HOP-92 NSCLC) was 2.58 µM and the TGI (HOP-92 NSCLC) was > 100 µM. It also gave a GI50 (HS 578T breast) of 1.2 µM, a TGI (HS 578T breast) of 25.6 µM and a GI50 (NCI-H460 lung) of 0.389 µM. For the same compound, the TGI (NCI-H460 lung) was 50 µM, the GI50 (OVCAR-5 ovarian) was 2.57 µM and the TGI (OVCAR-5 ovarian) was > 100 µM. The GI50 (CAKI-1 renal) was 0.75 µM, the TGI (CAKI-1 renal) was > 100 µM and the GI50 (MDA-MB-435) was 0.196 µM. For the same compound, the TGI (MDA-MB-435) was 0.459 µM, the GI50 (K-562 leukemia) was 0.321 µM and the TGI (K-562 leukemia) was > 100 µM. For the same compound, the GI50 (ACHN renal) was 3.27 µM, the TGI (ACHN renal) was > 100 µM and the GI50 (MOLT-4 leukemia) was 0.461 µM. The TGI (MOLT-4 leukemia) was > 100 µM, the GI50 (MCF7 breast) was 1.6 µM and the TGI (MCF7 breast) was > 100 µM. The GI50 (U251 CNS) was 0.528 µM, the TGI (U251 CNS) was > 100 µM and the GI50 (IGROV1 ovarian) was 0.801 µM. For the same compound, the TGI (IGROV1 ovarian) was > 100 µM, the GI50 (SR leukemia) was 0.251 µM and the TGI (SR leukemia) was > 100 µM. The GI50 (LOX IMVI melanoma) was 0.838 µM, the TGI (LOX IMVI melanoma) was > 100 µM and the GI50 (RXF 393 renal) was 1.87 µM. For the same compound, the TGI (RXF 393 renal) was 19.7 µM, the GI50 (A549 NSCLC) was 0.702 µM and the TGI (A549 NSCLC) was > 100 µM. For the same compound, the GI50 (PC-3 prostate) was 0.815 µM, the TGI (PC-3 prostate) was > 100 µM and the GI50 (OVCAR-8 ovarian) was 1.78 µM. For the same compound, the TGI (OVCAR-8 ovarian) was 84.6 µM, the GI50 (UACC-62 melanoma) was 0.536 µM and the TGI (UACC-62 melanoma) was > 100 µM. For the same compound, the GI50 (HOP-62 NSCLC) was 1.23 µM, the TGI (HOP-62 NSCLC) was > 100 µM and the GI50 (M14 melanoma) was 0.435 µM. The TGI (M14 melanoma) was > 100 µM, the GI50 (KM12 colon) was 17.3 µM and the TGI (KM12 colon) was > 100 µM. For the same compound, the GI50 (NCI/ADR-RES ovarian) was 0.262 µM, the TGI (NCI/ADR-RES ovarian) was 0.881 µM and the GI50 (COLO 205 colon) was 0.492 µM. The TGI (COLO 205 colon) was 24.5 µM, the GI50 (TK-10 renal) was 54.1 µM and the TGI (TK-10 renal) was > 100 µM. The GI50 (T-47D breast) was 0.869 µM, the TGI (T-47D breast) was > 100 µM and the GI50 (BT-549 breast) was 0.385 µM. The TGI (BT-549 breast) was > 100 µM, the GI50 (SK-MEL-28 melanoma) was 27.4 µM and the TGI (SK-MEL-28 melanoma) was > 100 µM. For the same compound, the GI50 (NCI-H226 lung) was 3.45 µM, the TGI (NCI-H226 lung) was > 100 µM and the GI50 (EKVX NSCLC) was 6.84 µM. The TGI (EKVX NSCLC) was > 100 µM, the GI50 (SK-MEL-2 melanoma) was 0.921 µM and the TGI (SK-MEL-2 melanoma) was 96.9 µM. For the same compound, the GI50 (MALME-3M melanoma) was > 100 µM, the TGI (MALME-3M melanoma) was > 100 µM and the GI50 (SK-OV-3 ovarian) was 1.76 µM. The TGI (SK-OV-3 ovarian) was > 100 µM, the GI50 (SN12C renal) was 0.799 µM and the TGI (SN12C renal) was > 100 µM. For the same compound, the GI50 (SNB-75 CNS) was 0.392 µM, the TGI (SNB-75 CNS) was 5.27 µM and the GI50 (UO-31 renal) was 2.15 µM. The TGI (UO-31 renal) was > 100 µM, the GI50 (HT29 colon) was 0.412 µM and the TGI (HT29 colon) was 3.53 µM. For the same compound, the GI50 (SF-295 CNS) was 0.845 µM, the TGI (SF-295 CNS) was > 100 µM and the GI50 (HCT-116 colon) was 0.428 µM. The TGI (HCT-116 colon) was > 100 µM, the GI50 (SW-620 colon) was 0.378 µM and the TGI (SW-620 colon) was > 100 µM. The GI50 (SNB-19 CNS) was 3.5 µM, the TGI (SNB-19 CNS) was > 100 µM and the GI50 (HL-60(TB) leukemia) was 0.333 µM. For the same compound, the TGI (HL-60(TB) leukemia) was > 100 µM, the GI50 (OVCAR-4 ovarian) was 6.28 µM and the TGI (OVCAR-4 ovarian) was > 100 µM. For the same compound, the GI50 (MDA-MB-231 breast) was 0.497 µM, the TGI (MDA-MB-231 breast) was > 100 µM and the GI50 (DU-145 prostate) was 2.85 µM. For the same compound, the TGI (DU-145 prostate) was > 100 µM, the GI50 (HCC-2998 colon) was 1.04 µM and the TGI (HCC-2998 colon) was > 100 µM. The GI50 (HCT-15 colon) was 0.416 µM, the TGI (HCT-15 colon) was > 100 µM and the GI50 (786-0 renal) was 6.02 µM. The TGI (786-0 renal) was > 100 µM, the GI50 (CCRF-CEM leukemia) was 1.66 µM and the TGI (CCRF-CEM leukemia) was > 100 µM. For the same compound, the GI50 (SF-268 CNS) was 6.37 µM, the TGI (SF-268 CNS) was > 100 µM and the GI50 (UACC-257 melanoma) was > 100 µM. The TGI (UACC-257 melanoma) was > 100 µM, the GI50 (SF-539 CNS) was 0.925 µM and the TGI (SF-539 CNS) was 4.76 µM. For the same compound, the GI50 (SK-MEL-5 melanoma) was 0.595 µM, the TGI (SK-MEL-5 melanoma) was > 100 µM and the GI50 (RPMI-8226 leukemia) was 0.895 µM. The TGI (RPMI-8226 leukemia) was > 100 µM.
